Results reported in ChEMBL document CHEMBL1201862, “PubChem BioAssay data set” (2004).
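Compound exposure: 48 hours, 5 concentrations, 96-well plates. GI50: concentration for 50% inhibition of growth.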 Activity calls are given as the source filed them. Rule as the data show it: active = GI50 up to about 1.1 µM and inactive = higher.

Tests used:
Test in all cases: growth of human tumour cells (NCI), 48 h
OVCAR-3 = test system: OVCAR-3
COLO 205 = test system: COLO 205
RPMI-8226 = test system: RPMI-8226
U-251 = test system: U-251
MCF7 = test system: MCF7
OVCAR-4 = test system: OVCAR-4
EKVX = test system: EKVX
HCT-116 = test system: HCT-116
UO-31 = test system: UO-31
ACHN = test system: ACHN
SNB-19 = test system: SNB-19
HOP-92 = test system: HOP-92
SR = test system: SR
CCRF-CEM = test system: CCRF-CEM
NCI-H522 = test system: NCI-H522
MDA-MB-231 = test system: MDA-MB-231
NCI/ADR-RES = test system: NCI/ADR-RES
KM12 = test system: KM12
NCI-H226 = test system: NCI-H226
HCC 2998 = test system: HCC 2998

Measured: GI50

OC1(c2ccc3ccccc3c2)c2c(c3ccccc3c3ccccc23)C2=NCCN21 (stereo not given)
inactive: OVCAR-3 7.21 µM | COLO 205 1.85 µM | RPMI-8226 2.52 µM | U-251 5.75 µM | MCF7 3.48 µM | OVCAR-4 3.55 µM | EKVX 5.51 µM | HCT-116 2.88 µM | UO-31 6.92 µM | ACHN 8.22 µM | SNB-19 12.9 µM | HOP-92 7.18 µM | SR 3.08 µM | CCRF-CEM 4.25 µM | NCI-H522 3.85 µM | MDA-MB-231 10.1 µM | NCI/ADR-RES 2.13 µM | KM12 2.32 µM | NCI-H226 34.5 µM

Fc1ccc(C(=C2CCN(CCc3ccc4[nH]c(=S)[nH]c4c3)CC2)c2ccc(F)cc2)cc1
inactive: OVCAR-3 2.1 µM | COLO 205 1.72 µM | RPMI-8226 2.73 µM | U-251 4.48 µM | MCF7 2.21 µM | OVCAR-4 5 µM | EKVX 3.51 µM | HCT-116 1.79 µM | UO-31 2.67 µM | ACHN 8.83 µM | SNB-19 12.4 µM | HOP-92 2.62 µM | SR 2.7 µM | CCRF-CEM 2.01 µM | NCI-H522 1.52 µM | MDA-MB-231 4.43 µM | NCI/ADR-RES 8.59 µM | KM12 6.47 µM | NCI-H226 22 µM

c1ccc(N/N=N/c2ccc(-c3nc4ccccc4o3)cc2)nc1
inactive: OVCAR-3 27.3 µM | COLO 205 20.6 µM | U-251 37.9 µM | HCC 2998 20 µM | MCF7 35.6 µM | OVCAR-4 36 µM | EKVX 29.9 µM | HCT-116 39.8 µM | UO-31 26.6 µM | ACHN 52.2 µM | SNB-19 75.2 µM | HOP-92 54.6 µM | SR 38.5 µM | NCI-H522 43 µM | MDA-MB-231 36.6 µM | NCI/ADR-RES 35.4 µM | KM12 37.8 µM

N#Cc1[nH]c(=O)n(-c2ccc(Cl)cc2)c1N
inactive: OVCAR-3 > 10 µM | COLO 205 > 10 µM | RPMI-8226 > 10 µM | U-251 > 10 µM | HCC 2998 > 10 µM | MCF7 > 10 µM | OVCAR-4 > 10 µM | EKVX > 10 µM | HCT-116 > 10 µM | ACHN > 10 µM | SNB-19 > 10 µM | SR > 10 µM | CCRF-CEM > 10 µM | NCI-H522 > 10 µM | MDA-MB-231 > 10 µM | NCI/ADR-RES > 10 µM | KM12 > 10 µM | NCI-H226 > 10 µM

CC1(C)CCCCCC(O)C(O)CCC(C)(C)C1=O (stereo not given)
inactive: OVCAR-3 > 100 µM | COLO 205 > 100 µM | RPMI-8226 > 100 µM | U-251 > 100 µM | MCF7 > 100 µM | OVCAR-4 > 100 µM | EKVX > 100 µM | HCT-116 > 100 µM | UO-31 > 100 µM | ACHN > 100 µM | SNB-19 > 100 µM | HOP-92 > 100 µM | SR > 100 µM | CCRF-CEM > 100 µM | NCI-H522 83.9 µM | MDA-MB-231 > 100 µM | NCI/ADR-RES > 100 µM | KM12 > 100 µM | NCI-H226 > 100 µM

N=C(N)NCCCC(=O)O
inactive: OVCAR-3 > 100 µM | COLO 205 > 100 µM | RPMI-8226 > 100 µM | U-251 > 100 µM | MCF7 > 100 µM | OVCAR-4 > 100 µM | EKVX > 100 µM | HCT-116 > 100 µM | UO-31 > 100 µM | ACHN > 100 µM | SNB-19 > 100 µM | HOP-92 > 100 µM | SR > 100 µM | CCRF-CEM > 100 µM | NCI-H522 > 100 µM | MDA-MB-231 > 100 µM | NCI/ADR-RES > 100 µM | KM12 > 100 µM | NCI-H226 > 100 µM

Nc1c(Br)cc(-c2nc3ccccc3s2)cc1Br
inactive: OVCAR-3 > 100 µM | COLO 205 > 100 µM | U-251 > 100 µM | HCC 2998 30.6 µM | MCF7 18.9 µM | EKVX > 100 µM | HCT-116 > 100 µM | UO-31 > 100 µM | ACHN > 100 µM | SNB-19 > 100 µM | HOP-92 > 100 µM | SR > 100 µM | CCRF-CEM > 100 µM | NCI-H522 > 100 µM | MDA-MB-231 > 100 µM | NCI/ADR-RES > 100 µM | KM12 75.7 µM | NCI-H226 > 100 µM

C=C1CC[C@@]2(C)[C@@H]([C@@H]1C)[C@H]1CC[C@@H]3[C@@]4(C)CC[C@H](O)C(C)(C)[C@@H]4CC[C@@]3(C)[C@]1(C)C[C@@H]2O
inactive: OVCAR-3 2.37 µM | COLO 205 4.23 µM | RPMI-8226 > 100 µM | U-251 1.73 µM | MCF7 2.13 µM | OVCAR-4 2.49 µM | EKVX 3 µM | HCT-116 2.99 µM | UO-31 2.5 µM | ACHN 2.11 µM | SNB-19 2.32 µM | HOP-92 1.99 µM | SR > 100 µM | CCRF-CEM 5.83 µM | NCI-H522 1.95 µM | MDA-MB-231 1.96 µM | NCI/ADR-RES 3.27 µM | KM12 3.65 µM | NCI-H226 5 µM

CC#CC(=O)SCCNC(=O)CC
inactive: OVCAR-3 > 10 µM | COLO 205 3.27 µM | RPMI-8226 > 5.15 µM | U-251 > 10 µM | HCC 2998 > 10 µM | MCF7 4.41 µM | OVCAR-4 4.48 µM | EKVX > 10 µM | HCT-116 8.51 µM | UO-31 > 10 µM | ACHN > 10 µM | SNB-19 > 10 µM | SR > 4.79 µM | CCRF-CEM 3.05 µM | NCI-H522 1.62 µM | MDA-MB-231 > 10 µM | NCI/ADR-RES > 10 µM | KM12 > 10 µM | NCI-H226 > 10 µM

Cc1nnc(S(=O)(=O)c2ccc(/N=N/c3c(N)nc(N)nc3N)cc2)s1
inactive: OVCAR-3 > 100 µM | COLO 205 > 100 µM | RPMI-8226 > 100 µM | U-251 > 100 µM | MCF7 > 100 µM | OVCAR-4 > 100 µM | EKVX > 100 µM | HCT-116 > 100 µM | UO-31 > 100 µM | ACHN > 100 µM | SNB-19 > 100 µM | HOP-92 > 100 µM | SR > 100 µM | CCRF-CEM > 100 µM | NCI-H522 > 100 µM | MDA-MB-231 > 100 µM | NCI/ADR-RES > 100 µM | KM12 > 100 µM | NCI-H226 > 100 µM

CC(C)c1ccc(/C(C(=O)O)=C(\O)C(=O)O)cc1
inactive: OVCAR-3 > 100 µM | COLO 205 > 100 µM | RPMI-8226 > 100 µM | U-251 > 100 µM | MCF7 > 100 µM | OVCAR-4 > 100 µM | EKVX > 100 µM | HCT-116 > 100 µM | UO-31 > 100 µM | ACHN > 100 µM | SNB-19 > 100 µM | HOP-92 > 100 µM | SR > 100 µM | CCRF-CEM > 100 µM | NCI-H522 > 100 µM | MDA-MB-231 > 100 µM | NCI/ADR-RES > 100 µM | KM12 > 100 µM | NCI-H226 > 100 µM
